Experimental data from patent US8022051B2, “Composition for protection and improvement of skin, or reinforcing skin barrier function comprising phosphatidylserine” (Doosan Corporation, priority 2004, dated 2011).

What was measured:
[1] = test system: hairless mouse; test: Skin barrier function restoration (TEWL) after tape stripping in hairless mice, oral administration; type: in vivo; conditions: 0.8 mg/mouse once a day for three weeks, up to 24 hours, compared to mouse not given phosphatidylserine, FIG. 9
Procedure: In this example 9, it was examined a difference of water loss restoration rates in a group to which the phosphatidylserine was administrated and a group to which the phosphatidylserine was not administrated, using the hairless mouse, so as to examine an effect of the phosphatidylserine on the skin barrier function restoring reinforcement.
First, a solution in which the phosphatidylserine (DS-PS, Doosan, Korea) was dispersed in a tertiary distilled water in a concentration of 400 mg/100 ml was used as a test material. It was prepared 10 hairless induced mice which were […] (Japan SLC Inc., Shizuoka, Japan). The solution was orally administrated to 5 mice of them in a dosage of 0.8 mg phosphatidylserine/mouse once a day and the tertiary distilled water was orally administrated to the other 5 mice. The medication period was three weeks. After that, it was measured a water evaporation loss for both sides of the backs of the hairless mice using a TEWL apparatus (TEWAMETER, TW210, Germany) (normal skin: about 10±2 g/hm^2). A Scotch tape was attached to the same positions and then cleared. […] After that, it was measured the water evaporation losses as time went by (i.e., before the injury, immediately after the injury, after 6 hours, after 9 hours and after 24 hours) to check the restoration rate of the skin barrier.

[2] = test system: TPA-induced ear inflammation in CD-1 mouse; test: Alleviation of skin damage (inflammatory response) due to TPA in mouse ear; type: in vivo; conditions: TPA 0.03%; applied 30 μl per cm^2 at 45 minutes and 4 hours after induction; phosphatidylserine 0.5%, clofibrate 1 mM, Wy14643 1 mM; FIG. 2
Procedure: In order to examine a skin damage (inflammatory response)-alleviating effect of the phosphatidylserine of the invention, which damage results from skin inflammation-inducing material, a following experiment was performed in accordance with a method used by Sheu et. al. (The Journal of Investigate Dermatology, 118, pp 94-101, 2002).
First, CD-1 mouse (male & female, 6-8 weeks, Charles River, US) was used as an experimental object. TPA (12-0-tetradecanoylphorbol-13-acetate) 0.03% (wt./vol.; in acetone) solution 10 μl, which was skin inflammation-inducing material, was treated to inner and outer parts of both ears of the experimental animal. The ear was thickened due to TPA and there occurred an inflammatory response. Then, clofibrate (1 mM) and Wy14643 (1 mM) as already-known positive control group, which are agonists of PPAR-a, and the 0.5% phosphatidylserine containing aqueous solution used as the Example 1 as an experimental material were applied to both ears in an amount of 30 μl per cm^2 at times of 45 minutes and 4 hours after the inflammation was induced. After that, the treated parts of the ears were subject to a biopsy, and the biopsy parts were fixed to 4% formaldehyde and then subject to Hematoxylene & Eosin (E&H) staining. The tissue slide stained with H&E was magnified to 100 folds to check the inflammation alleviation.

[3] = test system: skin keratinocyte cell line (HaCaT); test: Protection of skin keratinocytes from ultraviolet injury (MTT assay); type: cell-based, human; conditions: 25 mJ/cm^2 UVB; phosphatidylserine 20 and 40 μM, WY-14643 200 μM; 24 hours; FIG. 4
[4] = target: T1, PPAR-a (Homo sapiens, UniProt Q07869); test: PPAR-a activation in HeLa cell line (PPRE-luciferase reporter); type: cell-based; conditions: 20 and 40 μM, eight hours; FIG. 7
T1 construct: expressed in transfected cells; host or cells: HeLa (KCLB No. 10002)
T1 sequence (Q07869 1-468): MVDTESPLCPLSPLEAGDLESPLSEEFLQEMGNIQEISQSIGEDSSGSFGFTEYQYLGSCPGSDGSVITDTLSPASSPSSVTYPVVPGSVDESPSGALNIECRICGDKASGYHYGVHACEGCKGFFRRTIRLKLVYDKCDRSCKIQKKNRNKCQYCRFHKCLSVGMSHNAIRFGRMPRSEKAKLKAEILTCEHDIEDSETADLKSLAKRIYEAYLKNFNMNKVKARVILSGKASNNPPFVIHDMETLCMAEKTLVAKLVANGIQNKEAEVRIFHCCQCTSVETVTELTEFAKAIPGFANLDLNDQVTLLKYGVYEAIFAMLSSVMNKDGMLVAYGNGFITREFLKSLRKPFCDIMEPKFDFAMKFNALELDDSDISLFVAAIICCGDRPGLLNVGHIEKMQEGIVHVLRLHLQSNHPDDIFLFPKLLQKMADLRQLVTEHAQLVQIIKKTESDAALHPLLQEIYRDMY
Procedure: In order to examine a PPAR-a activating effect of the phosphatidylserine of the invention, a following experiment was performed. At this time, it was examined activities for the PPAR-a and PPAR-γ retained.
First, a HeLa (Human epithelial carcinoma) (KCLB [Korean Cell Line Bank] No. 10002, Korea) was seeded to a 24-well plate in an amount of 2×10^4 cells/well and then cultured for a day. Next day, in order to perform a cell transfection, 200 ng of PPAR-a over-expression vector, 200 ng of PPRE (peculiar to PPAR-a)-luciferase reporter vector (Promega, USA), and 40 ng of renilla luciferase vector used as the control group in the cell (internal control, i.e., used to examine an transfection efficiency) were mixed in the OMEM (Gibco, USA) culture medium and subject to the transfection to the cell using the lipofectamin (Invitrogen, USA). After four hours, the culture medium was added to be 10% FBS and then cultured for one night. Next day, in order to measure an activity of PPAR-a, it was treated with 20 and 40 μM of phosphatidylserine and 400 μM of the clofibrate as the positive control group and then cultured for eight hours. An activity of the luciferase was measured with a luminometer using a dual luciferase assay system (Promega, USA). Also in case of PPAR-γ, the same process was performed to measure the activity. […]

For phosphatidylserine, the “restoration rate of the skin barrier function (TEWL)” value [1] was “higher restoration rate”, the “inflammation alleviation (H&E stained ear tissue)” value [2] was “inflammation was alleviated” and the “protection of skin keratinocytes from ultraviolet injury (cell survival, MTT)” value [3] was “protected the skin keratinocytes from the ultraviolet injury”. The “activity of PPAR-a (luciferase)” value [4] was “activated”.
